These results are taken from patent US20090264483A1, “METHODS OF USING PPAR-gamma AGONISTS AND CASPASE-DEPENDENT CHEMOTHERAPEUTIC AGENTS FOR THE TREATMENT OF CANCER” (CEDARS-SINAI MEDICAL CENTER, priority 2006, published 2009).

What all share (type): cell-based, human
Data set [1] relates to LN-18, U-87MG, and MG-328 glioma cells. Put plainly: Cell viability assay (Ann/PI staining, FACS) with TRAIL. The protocol: (§1) Treatment of cells with TG, GW, PTPI, and/or SHPI for 24 h was followed by treatment with rTRAIL, VP16 or Taxol, and all the cells, including cells that had not adhered, were harvested after 24 h (48 h). An annexin V-fluorescein isothiocyanate apoptosis detection kit I (Pharmingen) was used for viability assay of the cells. Cells were stained with annexin V-fluorescein isothiocyanate (Ann) and propidium iodide (PI) according to the manufacturer's protocol and were analyzed by FACS (Pharmingen). Cells that stained negative for both Ann and PI were defined as viable cells for viability assay.

The subject of data set [2] is caspase-3, -8, and -9. Put plainly: Caspase activity assay in TRAIL-treated glioma cells. As for the experimental part: (§2) Activity of caspase-3, -8, and -9 was measured using caspase-3/CPP32, FLICE/caspase-8, and APOPCYTO/caspase-9 […] assay kits, respectively, from Medical and Biological Laboratories Co. (Nagoya, Japan). Briefly, the treatment of cells with TG, GW, and/or PTPI for 24 h was followed by treatment with rTRAIL, VP 16 or Taxol. After 2 h (24 h) of treatment, all the cells were harvested, and samples were extracted with Cell Lysis Buffer. Concurrently, a sample for a negative control was extracted from the cells without apoptosis induction. A standard curve using the absorbance of p-nitroanilide standards was constructed, and then the specific activities on each sample were calculated according to the manufacturer's protocol.

The test system of data set [3] is STAT3, pY705-STAT3, FLIP, Bcl-2, Bax, pS392-p53, PTP1B, SHP-1. The data set can be described thus: Western blot of glioma cell protein extracts. From the text:
Rabbit polyclonal Abs against DR4, DR5, and PPARγ were obtained from Cayman Chemical. Mouse monoclonal Abs against STAT3, phosphotyrosine 705 STAT3 (pY705-STAT3), which is an activated form of STAT3, Bax, and Bcl-2 were obtained from Pharmingen. Rabbit polyclonal Abs against p53 and phosphor-Ser-392-p53 (pS392-p53) were obtained from Cell Signaling Technology (Beverly, Mass.). Mouse monoclonal Abs against PTP1B (PTPase1B; AE4-2J) and Src homology 2-containing PTP-1 (SHP1; 1SH01) and rabbit polyclonal Ab against FLIP were obtained from Calbiochem. Mouse monoclonal Ab of β-tubulin was obtained from Sigma. Horseradish peroxidase-linked Abs of sheep anti-mouse IgG and donkey anti-rabbit IgG were obtained from Amersham Biosciences.
Samples were extracted with buffer containing 1% Triton X-100, 150 mM NaCl, 50 mM Tris (pH 7.5), and 1 mM phenylmethylsulfonyl fluoride (Roche Applied Science) and were subjected to SDS-PAGE with 30 μg of general protein loading into each lane on a 10% polyacrylamide gel. Electrophoretic transfer to nitrocellulose membranes (Amersham Biosciences) was followed by immunoblotting. The signal was detected by using an ECL detection system (Amersham Biosciences).
For orientation: Immunoblotting shows a protein as a band on a membrane.

In the next data set the test system is U-87MG cells. The data set can be described thus: Cell viability assay (Ann/PI staining, FACS) with VP16 or Taxol. The settings on record: for proliferation of cells in the control group (no TG or PTPI): 5-day cell cultures, U-87MG (not shown). The protocol:
as §1
(§3) Based on this hypothesis, a determination was sought whether TG enhances the cytotoxic activities of etoposide (VP16) and paclitaxel (Taxol), which are known to involve activation of caspase-2, -8, -9, and -10 during their apoptosis induction (Lin et al. (2004) J. Biol. Chem. 279, 40755-40761.; Perkins et al. (2000) Cancer Res. 60, 1645-1653.; Park et al. (2004) J. Biol. Chem. 279, 51057-51067.). To confirm this, treatment of U-87MG with TG and/or PTPI was followed by treatment with VP16 (0.01-10 μM) or Taxol (0.005-5 μM). The cells were then subjected to cell viability (FIGS. 7, A and B) and caspase activity assays (FIGS. 7, C and D).

The test system of data set [4] is caspase-3, -8, and -9. Put plainly: Caspase activity assay in U-87MG treated with VP16 or Taxol. To be noted: PTPI 50 μM and TG 30 μM for 24 h, then VP16 10 μM or Taxol 5 μM. As for the experimental part:
as §2, §3

For another data set, the system named is STAT3 mRNA. The data set can be described thus: Real time quantitative RT-PCR. To be noted: LN-18; STAT3-siRNA 50-600 pmol; 24 h after transfection; dose-dependent. The protocol:
DNA amplification was performed using an […] […] ID NO: 3), STAT3 reverse, [NT] ID NO: 4); and β-actin forward, [NT] ID NO: 5), β-actin reverse, [NT] ID NO: 6).

A further data set relates to LN-18. The data set can be described thus: Annexin V apoptosis detection (FACS) after TRAIL treatment. To be noted: TRAIL 300 ng/ml. As for the experimental part: […] An annexin V-fluorescein isothiocyanate apoptosis detection kit I (Pharmingen) was used for viability assay of the cells. Cells were stained with annexin V-fluorescein isothiocyanate (Ann) and propidium iodide (PI) according to the manufacturer's protocol and were analyzed by FACS (Pharmingen). Cells that stained negative for both Ann and PI were defined as viable cells for viability assay.
To examine the mechanism that causes resistance to TRAIL, glioma cell lines were used that are partially resistant to TRAIL despite their expression of DR4 and/or DR5. Western blot was used to detect the expression levels of DR4 and DR5 in LN-18, U-87MG, and MG-328 (FIG. 1A). The cytotoxic activity of TRAIL (18.75-300 ng/ml) was examined in each glioma (FIGS. 1, B and C). […] These findings indicate that these gliomas can acquire a resistance to TRAIL despite their expression of functionally intact DR4/5.

[5] abbreviates: SHPI 200 μM and TG 30 μM, then rTRAIL (not shown).
Where [6] appears, read: STAT3-siRNA-transfected glioma cells.

d = 2'-deoxy (DNA); r = 2'-OH (RNA)

As for `O=C(Nc1ccccc1)c1cc([N+](=O)[O-])ccc1Cl` [GW, GW9662], the “effect on the activity of TG in TRAIL-treated glioma cells (cell viability)” value in data set [1] (GW 20 μM and TG 30 μM for 24 h, then rTRAIL 100 ng/ml for 24 h) is “not blocked”. For the same molecule, in the data set with caspase-3, -8, and -9 [2] (GW 20 μM and TG 30 μM for 24 h, then rTRAIL 100 ng/ml for 2 h), the “effect on the specific activities of caspases in TG/TRAIL-treated cells” value is “did not reduce”. For the same molecule, the “pY705-STAT3 expression in cells treated with TG and GW” value in data set [3] (GW 20 μM and TG 30 μM for 24 h) is on record as “down-regulation of pY705-STAT3 was observed”. In data set [3] (GW 20 μM and TG 30 μM for 24 h, LN-18 and U-87MG), the “effect on the up-regulation of pS392-p53 induced by TG” value is reported as “abrogated”. Further, the “effect on the up-regulation of Bax found in TG-treated cells” value in data set [3] (GW 20 μM and TG 30 μM for 24 h, U-87MG) was “inhibited”.
In the case of `O=C(CBr)c1ccc(O)cc1` [PTPI, α-bromo-4-hydroxyacetophenone], in data set [1] (PTPI 50 μM and TG 30 μM, then rTRAIL 100 ng/ml (not shown)), the “effect on the effect of TG on TRAIL (cell viability)” value is recorded as “abrogated”. The “inhibition of the cytotoxic activity in TG-treated cells with VP16 or Taxol” value in the data set on U-87MG cells (U-87MG, PTPI 50 μM and TG 30 μM for 24 h, then VP16 or Taxol) was “limited effect”. Besides, the “effect on the effect of TG on TRAIL (caspase activity)” value in the data set on caspase-3, -8, and -9 [2] (PTPI 50 μM and TG 30 μM, then rTRAIL 100 ng/ml for 2 h) is reported as “abrogated”. For the same molecule, in the data set with caspase-3, -8, and -9 [4], the “effect on the effect of TG on the activity of caspase-8 and -9” value was “completely abrogated”; the “inhibition of caspase-3 activity in TG-treated cells with VP16 or Taxol” value was “limited effect”. For the same molecule, in data set [3] (PTPI 50 μM and TG 30 μM for 24 h), the “effect on the inhibitory effect of TG on pY705-STAT3” value is “abrogated”. Also, the “effect on the upregulation of pS392-p53 caused by TG” value in data set [3] (PTPI 50 μM and TG 30 μM for 24 h, LN-18 and U-87MG) is on record as “did not inhibit”.
As to `O=C(O)COc1ccc(C(=O)CBr)cc1` [SHPI, α-bromo-4-carboxymethoxyacetophenone], the “effect on the effect of TG on TRAIL (cell viability)” value in data set [1] (setting [5]) is “did not abrogate”. The “effect on the effect of TG on TRAIL (caspase activity)” value with caspase-3, -8, and -9 [2] (setting [5]) was “did not abrogate”. Further, in data set [3] (SHPI 200 μM and TG 30 μM for 24 h), the “effect on the downregulation of pY705-STAT3 induced by TG” value is recorded as “did not inhibit”.
As for `Cc1c(C)c2c(c(C)c1O)CCC(C)(COc1ccc(CC3SC(=O)NC3=O)cc1)O2` (centres unmarked) [TG, troglitazone], the “effect on the cytotoxic activity of TRAIL” value in data set [1] (TG 30 μM for 24 h, then rTRAIL 100 ng/ml for 24 h, LN-18, U-87MG and MG-328) is given as “significantly enhance”. Also, in the data set with U-87MG cells (U-87MG, TG 30 μM for 24 h, then Taxol 0.005-5 μM for 48 h), the “effect on the cytotoxic activity of Taxol (cell viability)” value is recorded as “positive activities”. Moreover, the “effect on the cytotoxic activity of VP16 (cell viability)” value with U-87MG cells (U-87MG, TG 30 μM for 24 h, then VP16 0.01-10 μM for 48 h) was “positive activities”. Further, in data set [3] (TG 30 μM), the “time at which down-regulation of pY705-STAT3 was noticeable” value amounted to 8 h. In addition, the STAT3 expression levels entry in data set [3] (TG 30 μM, LN-18, U-87MG, MG-328) was “no effect”. Moreover, in data set [3] (TG 30 μM, all gliomas), the “time at which 42 kDa PTP1B expression reached maximum levels” value was in the range of 16 to 32 h and the “time of start of up-regulation of the activated form of PTP1B (42 kDa) after treatment” value is no more than 4 h.
In the case of `CC(=O)O[C@H]1C(=O)[C@@]2(C)[C@H]([C@H](OC(=O)c3ccccc3)[C@]3(O)C[C@H](OC(=O)[C@H](O)[C@@H](NC(=O)c4ccccc4)c4ccccc4)C(C)=C1C3(C)C)[C@]1(OC(C)=O)CO[C@@H]1C[C@@H]2O` [Taxol, paclitaxel], in the data set on U-87MG cells (Taxol 5 μM), the “proliferation of cells in the control group (no TG or PTPI)” value is “maintained an ability to proliferate”.
`COc1cc([C@@H]2c3cc4c(cc3[C@@H](O[C@@H]3O[C@@H]5CO[C@@H](C)O[C@H]5[C@H](O)[C@H]3O)[C@H]3COC(=O)[C@H]23)OCO4)cc(OC)c1O` [VP16, Etoposide]: the “proliferation of cells in the control group (no TG or PTPI)” value in the data set with U-87MG cells (VP16 10 μM) was “maintained an ability to proliferate”.
Regarding “STAT3-siRNA: double-stranded siRNA oligonucleotide against STAT3 (SEQ ID NO: 1 and 2), Dharmacon (chain 1 AACAUCUGCCUAGAUCGGCUATT; chain 2 UAGCGGAUCUAGGCAGAUG; chain 1: sugars from the 5' end r21 d2, backbone not given here; chain 2: RNA, 3' dTdT, backbone not given here)”, in data set [1] (STAT3-siRNA 600 pmol, then TRAIL 100 ng/ml for 24 h), the “effect on the cytotoxic effect of TRAIL” value was “significantly enhanced”. Also, the “apoptotic death of glioma cells, agent alone” value in data set [1] (STAT3-siRNA 600 pmol, without rTRAIL) is listed as “did not induce their apoptotic death”. In addition, the “specific activities of caspases-3, -8, and -9” value with caspase-3, -8, and -9 [2] (STAT3-siRNA 600 pmol, then TRAIL 100 ng/ml for 2 h) is “significantly increased”. In addition, the “inhibitory effect of PTPI on TG in transfected glioma cells (caspase activity)” value with caspase-3, -8, and -9 [2] (STAT3-siRNA 600 pmol, cells treated with TG, PTPI and TRAIL) is recorded as “negated”. Further, the STAT3 protein expression entry in data set [3] (LN-18, STAT3-siRNA 50-600 pmol, 24 h after transfection, dose-dependent) is given as “decreased”. Also, in data set [3] (setting [6]), the Bax expression levels entry is given as “not altered”; the “FLIP and Bcl-2 expression levels” value was “decreased”; the pY705-STAT3 expression result is “down-regulated”. In addition, the “STAT3 mRNA expression” value with STAT3 mRNA is reported as “decreased”.

B1: TRAIL: Recombinant human tumor necrosis factor-related apoptosis-inducing ligand, obtained from Pepro-Tech (protein, UniProt P50591 1-281, looked up)
Tumor necrosis factor ligand …: MAMMEVQGGPSLGQTCVLIVIFTVLLQSLCVAVTYVYFTNELKQMQDKYSKSGIACFLKEDDSYWDPNDEESMNSPCWQVKWQLRQLVRKMILRTSEETISTVQEKQQNISPLVRERGPQRVAAHITGTRGRSNTLSSPNSKNEKALGRKINSWESSRSGHSFLSNLHLRNGELVIHEKGFYYIYSQTYFRFQEEIKENTKNDKQMVQYIYKYTSYPDPILLMKSARNSCWSKDAEYGLYSIYQGGIFELKENDRIFVSVTNEHLIDMDHEASFFGAFLVG
As for B1, the “percentage of Ann(+) PI(−) cells (early stage of apoptosis)” value in the data set on LN-18 (after 2 h of treatment) is reported as 33.7%; in the data set with LN-18 (after 24 h of treatment) it was 60.1%. Besides, in data set [1] (300 ng/ml TRAIL, after 24 h of treatment, LN-18, U-87MG, MG-328), the cell death was 40-60%. Further, the “cells killed by TRAIL in the STAT3-siRNA-transfected group” value in data set [1] (TRAIL 100 ng/ml, 72-h cell culture, each glioma (not shown)) is on record as “more than 95%”. In data set [1] (after 72 h of cell culture with 300 ng/ml TRAIL (not shown)), the “proliferative ability of the viable cells” value is “maintained a proliferative ability”.
